These results are taken from paper PMC10657792, “Downstream Allosteric Modulation of NMDA Receptors by 3-Benzazepine Derivatives” (Molecular Neurobiology, 2023).

In general, IC50 refers to the concentration at which inhibition is half-maximal. In general, Hill coefficient refers to the slope factor of the fitted curve. By inhibition is commonly meant how much of the control response was suppressed. Lower therefore signals a response near the control.

Structures are written as SMILES. Values joined by “and” are separate entries in the source; they are usually repeats but may differ in a detail not shown here. Equal values may be shown once.

What all share (format): cell-based
One assay concerns the target GluN1a wt/ GluN2B F114A (Rattus norvegicus, UniProt P35439+Q00960, F114A). As to the kind of experiment: TEVC recording in X. laevis oocytes, GluN2B mutant screening. The conditions noted are these: fitted curve.
Another assay concerns the target GluN1a wt/ GluN2B E236A (Rattus norvegicus, UniProt P35439+Q00960, E236A). Described as above. The conditions noted are these: fitted curve.
In the next assay the target is GluN1a wt/ GluN2B Q110A (Rattus norvegicus, UniProt P35439+Q00960, Q110A). Described as above. The conditions noted are these: fitted curve.
Sequence of GluN1a wt/ GluN2B Q110A (Q00960 27-1482 Q110A, other chains not shown): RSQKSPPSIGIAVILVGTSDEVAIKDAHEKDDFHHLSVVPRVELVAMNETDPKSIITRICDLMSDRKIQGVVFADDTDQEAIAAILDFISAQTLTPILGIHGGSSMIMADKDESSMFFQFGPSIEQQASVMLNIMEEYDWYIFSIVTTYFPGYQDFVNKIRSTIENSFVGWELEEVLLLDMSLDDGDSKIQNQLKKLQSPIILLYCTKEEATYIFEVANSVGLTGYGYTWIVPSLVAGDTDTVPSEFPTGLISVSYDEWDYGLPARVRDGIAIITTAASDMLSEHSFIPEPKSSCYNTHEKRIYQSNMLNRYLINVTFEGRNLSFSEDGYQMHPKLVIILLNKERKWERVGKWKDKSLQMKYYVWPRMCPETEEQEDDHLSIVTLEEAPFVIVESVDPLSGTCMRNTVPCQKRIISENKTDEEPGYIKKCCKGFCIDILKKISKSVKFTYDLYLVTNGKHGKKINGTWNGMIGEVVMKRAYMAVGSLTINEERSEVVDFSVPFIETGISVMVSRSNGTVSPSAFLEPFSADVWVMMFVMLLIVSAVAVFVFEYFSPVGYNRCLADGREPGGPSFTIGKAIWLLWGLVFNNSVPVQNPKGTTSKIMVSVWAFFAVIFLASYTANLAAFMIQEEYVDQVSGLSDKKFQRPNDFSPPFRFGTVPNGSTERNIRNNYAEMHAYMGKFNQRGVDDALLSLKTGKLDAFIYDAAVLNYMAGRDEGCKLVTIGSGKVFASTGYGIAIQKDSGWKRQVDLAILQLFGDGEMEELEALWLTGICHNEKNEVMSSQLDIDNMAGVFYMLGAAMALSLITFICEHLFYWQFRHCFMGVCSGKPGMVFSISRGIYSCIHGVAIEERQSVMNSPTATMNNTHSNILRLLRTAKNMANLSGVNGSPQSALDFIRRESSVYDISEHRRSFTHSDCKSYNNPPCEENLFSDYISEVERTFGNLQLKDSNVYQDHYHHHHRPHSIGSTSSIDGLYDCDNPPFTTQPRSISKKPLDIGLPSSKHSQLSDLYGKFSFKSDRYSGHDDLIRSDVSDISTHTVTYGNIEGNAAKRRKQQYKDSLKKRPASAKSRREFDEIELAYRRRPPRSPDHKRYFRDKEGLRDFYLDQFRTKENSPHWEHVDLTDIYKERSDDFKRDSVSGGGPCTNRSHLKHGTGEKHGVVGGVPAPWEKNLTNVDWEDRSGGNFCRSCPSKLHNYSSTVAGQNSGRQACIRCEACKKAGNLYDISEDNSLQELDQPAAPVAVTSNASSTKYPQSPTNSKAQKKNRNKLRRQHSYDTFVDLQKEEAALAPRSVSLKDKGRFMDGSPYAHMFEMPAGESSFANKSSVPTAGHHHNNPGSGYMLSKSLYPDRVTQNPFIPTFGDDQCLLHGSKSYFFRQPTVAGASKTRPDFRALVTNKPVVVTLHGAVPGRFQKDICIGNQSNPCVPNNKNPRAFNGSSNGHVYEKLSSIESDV
The target in assay [1] is GluN1a wt/ GluN2B N192A/F194A (Rattus norvegicus, UniProt P35439+Q00960, F194A/N192A). Described as above.
Sequence of GluN1a wt/ GluN2B N192A/F194A (Q00960 27-1482 N192A/F194A, other chains not shown): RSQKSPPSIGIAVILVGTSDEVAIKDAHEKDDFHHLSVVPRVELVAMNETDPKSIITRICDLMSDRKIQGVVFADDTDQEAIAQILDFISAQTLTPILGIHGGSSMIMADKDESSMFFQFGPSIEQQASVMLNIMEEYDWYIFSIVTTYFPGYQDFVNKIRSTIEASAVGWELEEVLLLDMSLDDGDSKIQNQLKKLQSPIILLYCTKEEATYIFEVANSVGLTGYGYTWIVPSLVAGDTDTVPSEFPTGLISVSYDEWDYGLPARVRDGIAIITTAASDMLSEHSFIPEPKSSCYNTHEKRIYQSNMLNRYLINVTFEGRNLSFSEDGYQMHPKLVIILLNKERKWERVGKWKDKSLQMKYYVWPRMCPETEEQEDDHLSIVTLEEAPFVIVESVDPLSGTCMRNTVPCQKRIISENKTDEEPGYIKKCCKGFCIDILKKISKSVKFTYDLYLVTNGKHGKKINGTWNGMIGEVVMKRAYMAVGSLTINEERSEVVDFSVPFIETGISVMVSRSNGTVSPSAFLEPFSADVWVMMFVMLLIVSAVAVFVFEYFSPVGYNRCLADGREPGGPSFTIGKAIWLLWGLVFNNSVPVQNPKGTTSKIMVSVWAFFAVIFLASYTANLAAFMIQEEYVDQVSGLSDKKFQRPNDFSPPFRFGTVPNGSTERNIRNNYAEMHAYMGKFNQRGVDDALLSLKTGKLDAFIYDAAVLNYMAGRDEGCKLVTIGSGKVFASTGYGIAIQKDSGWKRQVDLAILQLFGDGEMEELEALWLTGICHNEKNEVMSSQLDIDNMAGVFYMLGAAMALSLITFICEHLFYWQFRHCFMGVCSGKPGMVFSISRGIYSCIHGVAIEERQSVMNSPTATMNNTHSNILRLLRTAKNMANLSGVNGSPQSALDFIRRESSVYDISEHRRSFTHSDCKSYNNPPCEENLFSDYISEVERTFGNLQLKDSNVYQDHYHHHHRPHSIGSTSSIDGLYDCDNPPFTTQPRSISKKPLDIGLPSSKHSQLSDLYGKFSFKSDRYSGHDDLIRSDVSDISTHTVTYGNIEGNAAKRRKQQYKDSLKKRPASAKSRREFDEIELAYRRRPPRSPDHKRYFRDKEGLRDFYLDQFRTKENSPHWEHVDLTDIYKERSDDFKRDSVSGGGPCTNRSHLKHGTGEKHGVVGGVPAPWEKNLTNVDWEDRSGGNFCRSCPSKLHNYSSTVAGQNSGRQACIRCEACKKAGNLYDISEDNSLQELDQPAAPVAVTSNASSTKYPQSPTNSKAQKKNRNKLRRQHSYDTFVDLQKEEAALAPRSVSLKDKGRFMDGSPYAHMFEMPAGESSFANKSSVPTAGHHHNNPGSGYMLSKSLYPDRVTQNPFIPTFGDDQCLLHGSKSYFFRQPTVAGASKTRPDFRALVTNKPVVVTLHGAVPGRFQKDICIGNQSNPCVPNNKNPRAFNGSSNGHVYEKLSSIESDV
In another assay the target is T1, GluN1-1a/GluN2B (Rattus norvegicus, UniProt P35439+Q00960).
T1 construct: eGFP; DsRed2 (C); expressed in transfected cells; host or cells: CHO cells (constructs a gift from Prof. Hollmann, Bochum)
As to the kind of experiment: Single-channel patch clamp recordings (cell-attached) in CHO cells: open time, open channel probability. The conditions noted are these: 1 µM compound, without exon 5. As for the experimental part:
(§1) Chinese hamster ovary (CHO) cells were co-transfected with GluN1-1a eGFP and GluN2B pDsRed2-N1 or GluN1-1b eGFP and GluN2B pDsRed2-N1. The constructs were a generous gift from Prof. Hollmann (Bochum, Germany). GluN1-1b eGFP was obtained by subcloning of GluN1-1b in eGFP using BssHII and BtrI. Single-channel patch clamp recordings were performed at room temperature using an Axopatch 200B amplifier (Molecular Devices, USA). The patch clamp experiments on cultured CHO cells were done using Clampex 10.7 software (Molecular Devices, USA). Single-channel recordings were performed in the cell-attached configuration. Borosilicate glass pipettes with a resistance of 2–3 MΩ were backfilled with internal solution, consisting of 125 mM NaCl, 3 mM KCl, 1.25 mM NaH2PO4, 0.85 mM CaCl2, and 20 mM HEPES, 100 nM (S)-glutamate, and 20 µM glycine, adjusted to pH 7.4. During the recordings, the cells were continuously flushed with external solution, consisting of 141 mM potassium gluconate, 2.5 mM NaCl, 11 mM EGTA, and 10 mM HEPES, adjusted to pH 7.4 by KOH. The antagonist solution was prepared by adding 1 µM (R)-OF-NB1. All solutions were adjusted to a DMSO concentration of 0.1%. NMDA currents were measured by clamping GluN1-1a/GluN2B or GluN1-1b/GluN2B wild-type expressing CHO cells at − 70 mV. […] Data analysis was performed and evaluated using Clampfit 10.7 (Molecular Devices, USA).
(In patch-clamp work, channel activity is measured electrically.)

The next assay has as its target T2, GluN1-1b/GluN2B (Rattus norvegicus, UniProt P35439+Q00960).
T2 construct: eGFP; DsRed2 (C); expressed in transfected cells; host or cells: CHO cells
Described as above. The conditions noted are these: 1 µM compound, exon 5 present. On the procedure: as §1

The mark [2] stands for this setting: agonists 10 µM glycine + 10 µM (S)-glutamate.

Sequence of GluN1a wt/ GluN2B F114A (Q00960 27-1482 F114A, other chains not shown): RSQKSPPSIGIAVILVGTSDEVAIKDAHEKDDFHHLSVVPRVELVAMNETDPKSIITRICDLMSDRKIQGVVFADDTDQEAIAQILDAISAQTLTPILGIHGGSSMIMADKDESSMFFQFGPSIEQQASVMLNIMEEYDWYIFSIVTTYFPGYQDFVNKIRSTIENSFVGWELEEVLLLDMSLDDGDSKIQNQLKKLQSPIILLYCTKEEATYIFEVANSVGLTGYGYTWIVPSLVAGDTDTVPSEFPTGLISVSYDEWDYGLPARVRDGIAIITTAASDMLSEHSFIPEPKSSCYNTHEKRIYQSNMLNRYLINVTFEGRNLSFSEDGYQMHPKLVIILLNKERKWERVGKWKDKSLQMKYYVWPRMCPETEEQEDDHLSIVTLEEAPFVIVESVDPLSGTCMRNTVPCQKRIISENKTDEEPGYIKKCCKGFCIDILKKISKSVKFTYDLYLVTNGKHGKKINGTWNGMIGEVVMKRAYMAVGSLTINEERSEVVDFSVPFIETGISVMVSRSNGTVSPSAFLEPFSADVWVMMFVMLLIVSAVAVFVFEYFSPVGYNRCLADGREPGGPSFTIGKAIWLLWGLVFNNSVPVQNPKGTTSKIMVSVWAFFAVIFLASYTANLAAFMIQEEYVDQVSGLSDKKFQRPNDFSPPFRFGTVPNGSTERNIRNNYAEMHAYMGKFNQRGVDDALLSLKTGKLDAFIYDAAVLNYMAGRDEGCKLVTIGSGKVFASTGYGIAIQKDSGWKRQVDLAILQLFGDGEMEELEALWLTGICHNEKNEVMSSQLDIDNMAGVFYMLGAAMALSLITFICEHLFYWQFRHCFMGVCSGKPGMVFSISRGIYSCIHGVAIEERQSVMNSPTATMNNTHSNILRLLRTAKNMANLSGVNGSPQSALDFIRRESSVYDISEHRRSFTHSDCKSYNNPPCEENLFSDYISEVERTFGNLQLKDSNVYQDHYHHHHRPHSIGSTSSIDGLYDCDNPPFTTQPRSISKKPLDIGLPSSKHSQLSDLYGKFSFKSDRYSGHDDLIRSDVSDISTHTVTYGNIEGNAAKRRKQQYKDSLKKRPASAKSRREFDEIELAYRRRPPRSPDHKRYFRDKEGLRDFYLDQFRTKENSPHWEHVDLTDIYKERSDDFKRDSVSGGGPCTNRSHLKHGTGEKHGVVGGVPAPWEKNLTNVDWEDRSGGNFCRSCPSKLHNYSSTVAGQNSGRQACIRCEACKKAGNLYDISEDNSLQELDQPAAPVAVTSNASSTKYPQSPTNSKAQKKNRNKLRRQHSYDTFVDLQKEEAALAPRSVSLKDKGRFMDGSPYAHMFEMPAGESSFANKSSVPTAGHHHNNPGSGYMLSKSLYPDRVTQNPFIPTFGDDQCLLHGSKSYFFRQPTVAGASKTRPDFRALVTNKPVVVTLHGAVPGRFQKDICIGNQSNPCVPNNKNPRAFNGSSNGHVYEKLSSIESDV

In the case of `Oc1ccc2c(c1)CCN(CCCCc1ccccc1F)C[C@@H]2O` [(R)-OF-NB1], the IC50 at GluN1a wt/ GluN2B F114A (setting [2]) amounted to 6580 nM; at GluN1a wt/ GluN2B E236A (setting [2]), 232 nM; at GluN1a wt/ GluN2B Q110A (setting [2]), 210 nM. In addition, the Hill coefficient stood at 0.8 at GluN1a wt/ GluN2B F114A, 1.1 at GluN1a wt/ GluN2B E236A, 5.4 at GluN1a wt/ GluN2B Q110A and 0.3 in assay [1] (fitted curve). In assay [1] (GluN1-1a GluN2B N192A/F194A, compound concentration 1 μM, single oocytes), this compound returned an inhibition at 1 µM of 30.7%. The “inhibition (%)” value is 27.3896% and 29.45% and 20.653% in assay [1] (GluN1-1a GluN2B N192A/F194A, compound concentration 1 μM, single oocytes, 1 µM); 48.3548% and 37.2275% and 43.7739% and 28.318% in assay [1] (GluN1-1a GluN2B N192A/F194A, compound concentration 10 μM, single oocytes, 10 µM); 42.6495% and 45.6455% and 35.2023% in assay [1] (GluN1-1a GluN2B N192A/F194A, compound concentration 30 μM, single oocytes, 30 µM). The compound further came in with an inhibition at 30 µM in assay [1] (GluN1-1a GluN2B N192A/F194A, compound concentration 30 μM, single oocytes) of 50.8%. For the same compound, the “effect on open time of NMDAR” value on GluN1-1a/GluN2B and at GluN1-1b/GluN2B was “did not result in a significant reduction” throughout.
